pEC50: −log10 of the molar value. ≈ marks a conversion by molar mass, not a printed value.
Legend:
Motilin Receptor = biological target: T1, Motilin Receptor (Oryctolagus cuniculus, UniProt G1T803); experiment: Tissue based assay for motilin agonist potency (rabbit duodenum contractility); type: cell-based; conditions: rabbit duodenum strips, contraction normalized to 1 μM carbachol; read-out: Motilin Receptor Agonist Activity (EC50)
T1 construct: strips of longitudinal smooth muscle were sliced from the segments; from tissue; host or cells: rabbit duodenum longitudinal smooth muscle strips
Protocol: The motilin agonist potencies of compounds of this invention were evaluated using a tissue based assay, using rabbit duodenum tissue-based contractility assay, generally following the procedure of Depoortere et al., J. Gastrointestinal Motility, 1, 150-159 (1989), the disclosure of which is incorporated herein by reference. Briefly, this method measures the ability of a compound to induce contractions in rabbit duodenal tissue, a motilin receptor-bearing tissue contractilely responsive to motilin.
Strips of rabbit duodenum were tested and qualified for use in the assay by as follows. Segments of rabbit duodenum, 20-30 cm distal to the pylorus were split longitudinally. The mucosa was removed and 2×2×15 mm strips of longitudinal smooth muscle were sliced from the segments. The strips were bathed in oxygenated Krebs solution at 37° C., with 1.5 g of tension, and contractions measured auxotonically.
The carbachol was then washed away by changing the organ bath buffer twice. The strips were washed again 20±5 minutes following the carbachol contraction. Following this last wash a dose response study was initiated within 10±5 min. Each compound tested was dissolved in dimethylsulfoxide (DMSO) to a final concentration of 10 mM. A series of seven 10× serial dilutions in water was prepared, so that the concentration of the seventh serial dilution was 1.0×10^−6 mM. The first through fifth serial dilutions of the compound were applied, starting with 200 μL of the most dilute solution. After each application, there was a wait of 2±0.5 min, until the response was stable, before the application of the next dose (the next higher concentration serial dilution). The dose was increased in 10-fold increments until a small response was observed. Subsequent doses were the increased in 2- to 5-fold increments, until the maximum response was obtained. At 2±0.5 min after the last drug addition, the strips were dosed with 1 μM carbachol.
The EC50 (concentration producing a half-maximal effect) was calculated as follows. The basal tension was subtracted from the compound-induced tension for each reading. The data points were normalized against the response obtained from 1 μM carbachol at the end of the experiment. The concentration of compound was plotted against the response and fitted to the following equation: R=(Rmax·C)/(EC50+C) where R is the contraction response, Rmax is the maximal contraction response, and C is the concentration of compound. Both R and Rmax are expressed as a fraction of the 1 μM carbachol contraction and range from 0 to 1.

[1] = test system: Streptococcus pneumoniae ATCC 6301; experiment: Evaluation of antibacterial activity (MIC, serial dilutions on 96-well microtiter plates); type: cell-based; conditions: ATCC6301, read-out: Antibacterial Activity (MIC, μg/mL)

T1 sequence (G1T803 1-400): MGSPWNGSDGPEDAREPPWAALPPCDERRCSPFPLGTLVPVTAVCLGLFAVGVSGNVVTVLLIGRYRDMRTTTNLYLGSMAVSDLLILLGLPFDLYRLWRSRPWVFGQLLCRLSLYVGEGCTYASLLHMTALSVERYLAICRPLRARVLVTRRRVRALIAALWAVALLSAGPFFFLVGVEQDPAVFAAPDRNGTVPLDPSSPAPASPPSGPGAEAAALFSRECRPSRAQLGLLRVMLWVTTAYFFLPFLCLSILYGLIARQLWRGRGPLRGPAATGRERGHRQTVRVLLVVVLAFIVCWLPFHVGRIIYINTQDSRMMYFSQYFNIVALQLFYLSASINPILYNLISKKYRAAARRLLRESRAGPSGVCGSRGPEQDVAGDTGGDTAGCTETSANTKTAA

| Compound | pEC50 (Motilin Receptor) | MIC [1] [µg/mL] |
| --- | --- | --- |
| CC[C@H]1OC(=O)[C@H](C)[C@@H](O[C@H]2C[C@@](C)(OC)[C@@H](O)[C@H](C)O2)[C@H](C)[C@@H](O[C@@H]2O[C@H](C)C[C@H](N(C)C(C)C)[C@H]2O)[C@](C)(O)C[C@@H](C)[C@H](OCc2ccncc2)[C@H](C)[C@@H](O)[C@]1(C)O [Compound A-28] | < 6.38 | 128 (≈ 150 µM) |
| CC[C@H]1OC(=O)[C@H](C)[C@@H](O[C@H]2C[C@@](C)(OC)[C@@H](O)[C@H](C)O2)[C@H](C)[C@@H](O[C@@H]2O[C@H](C)C[C@H](N(C)C[C@H](C)O)[C@H]2O)[C@](C)(O)C[C@@H](C)[C@H](OCC(=O)O)[C@H](C)[C@@H](O)[C@]1(C)O [Compound A-11] | 6.13 | > 128 |
| CC[C@H]1OC(=O)[C@H](C)[C@@H](O[C@H]2C[C@@](C)(OC)[C@@H](O)[C@H](C)O2)[C@H](C)[C@@H](O[C@@H]2O[C@H](C)C[C@H](N(C)C[C@H](C)O)[C@H]2O)[C@](C)(O)C[C@@H](C)[C@H](OCC(N)=O)[C@H](C)[C@@H](O)[C@]1(C)O [Compound A-14] | 6.98 | > 128 |
| CC[C@H]1OC(=O)[C@H](C)[C@@H](O[C@H]2C[C@@](C)(OC)[C@@H](O)[C@H](C)O2)[C@H](C)[C@@H](O[C@@H]2O[C@H](C)C[C@H](N(C)C(C)C)[C@H]2O)[C@](C)(O)C[C@@H](C)[C@H](OCc2csc(C)n2)[C@H](C)[C@@H](O)[C@]1(C)O [Compound A-26] | 6.32 | 128 (≈ 146 µM) |
| CCNC(=O)CO[C@@H]1[C@H](C)[C@@H](O)[C@](C)(O)[C@@H](CC)OC(=O)[C@H](C)[C@@H](O[C@H]2C[C@@](C)(OC)[C@@H](O)[C@H](C)O2)[C@H](C)[C@@H](O[C@@H]2O[C@H](C)C[C@H](N(C)C(C)C)[C@H]2O)[C@](C)(O)C[C@H]1C [Compound A-31] | 7.17 | > 128 |
| CC[C@H]1OC(=O)[C@H](C)[C@@H](O[C@H]2C[C@@](C)(OC)[C@@H](O)[C@H](C)O2)[C@H](C)[C@@H](O[C@@H]2O[C@H](C)C[C@H](N(C)C(C)C)[C@H]2O)[C@](C)(O)C[C@@H](C)[C@H](OC(N)=O)[C@H](C)[C@@H](O)[C@]1(C)O [Compound A-17] | 6.19 | 64 (≈ 79.3 µM) |
| CC[C@H]1OC(=O)[C@H](C)[C@@H](O[C@H]2C[C@@](C)(OC)[C@@H](O)[C@H](C)O2)[C@H](C)[C@@H](O[C@@H]2O[C@H](C)C[C@H](N(C)C(C)C)[C@H]2O)[C@](C)(O)C[C@@H](C)[C@H](OCc2cc(C)on2)[C@H](C)[C@@H](O)[C@]1(C)O [Compound A-27] | 6.96 | 128 (≈ 149 µM) |
| CC[C@H]1OC(=O)[C@H](C)[C@@H](O[C@H]2C[C@@](C)(OC)[C@@H](O)[C@H](C)O2)[C@H](C)[C@@H](O[C@@H]2O[C@H](C)C[C@H](N(C)C(C)C)[C@H]2O)[C@](C)(O)C[C@@H](C)[C@H](OCCNS(C)(=O)=O)[C@H](C)[C@@H](O)[C@]1(C)O [Compound A-32] | 6.62 | > 128 |
| CC[C@H]1OC(=O)[C@H](C)[C@@H](O[C@H]2C[C@@](C)(OC)[C@@H](O)[C@H](C)O2)[C@H](C)[C@@H](O[C@@H]2O[C@H](C)C[C@H](N(C)C(C)C)[C@H]2O)[C@](C)(O)C[C@@H](C)[C@H](OCC(=O)NC)[C@H](C)[C@@H](O)[C@]1(C)O [Compound A-21] | 7.24 | 64 (≈ 76.6 µM) |
| CC[C@H]1OC(=O)[C@H](C)[C@@H](O[C@H]2C[C@@](C)(OC)[C@@H](O)[C@H](C)O2)[C@H](C)[C@@H](O[C@@H]2O[C@H](C)C[C@H](N(C)C3CCC3)[C@H]2O)[C@](C)(O)C[C@@H](C)[C@H](NS(C)(=O)=O)[C@H](C)[C@@H](O)[C@]1(C)O [Compound A-39] | 6.55 | > 128 |
| CC[C@H]1OC(=O)[C@H](C)[C@@H](O[C@H]2C[C@@](C)(OC)[C@@H](O)[C@H](C)O2)[C@H](C)[C@@H](O[C@@H]2O[C@H](C)C[C@H](N(C)C(C)C)[C@H]2O)[C@](C)(O)C[C@@H](C)[C@H](OCCOC)[C@H](C)[C@@H](O)[C@]1(C)O [Compound A-5] | 6.49 | 64 (≈ 77.9 µM) |
| CC[C@H]1OC(=O)[C@H](C)[C@@H](O[C@H]2C[C@@](C)(OC)[C@@H](O)[C@H](C)O2)[C@H](C)[C@@H](O[C@@H]2O[C@H](C)C[C@H](N(C)CC(C)(C)O)[C@H]2O)[C@](C)(O)C[C@@H](C)[C@H](NS(C)(=O)=O)[C@H](C)[C@@H](O)[C@]1(C)O [Compound A-37] | 7.28 | 64 (≈ 73.5 µM) |
| CC[C@H]1OC(=O)[C@H](C)[C@@H](O[C@H]2C[C@@](C)(OC)[C@@H](O)[C@H](C)O2)[C@H](C)[C@@H](O[C@@H]2O[C@H](C)C[C@H](N(C)C(C)C)[C@H]2O)[C@](C)(O)C[C@@H](C)[C@H](OC)[C@H](C)[C@@H](O)[C@]1(C)O [Compound A-1] | 7.18 |  |

Other lines, results leading:

| pEC50 (Motilin Receptor) | MIC [1] [µg/mL] | Compound |
| --- | --- | --- |
| 7.27 | > 128 | CC[C@H]1OC(=O)[C@H](C)[C@@H](O[C@H]2C[C@@](C)(OC)[C@@H](O)[C@H](C)O2)[C@H](C)[C@@H](O[C@@H]2O[C@H](C)C[C@H](N(C)C(C)C)[C@H]2O)[C@](C)(O)C[C@@H](C)[C@H](OCc2nc[nH]n2)[C@H](C)[C@@H](O)[C@]1(C)O [Compound A-55] |
| 7.04 |  | CC[C@H]1OC(=O)[C@H](C)[C@@H](O[C@H]2C[C@@](C)(OC)[C@@H](O)[C@H](C)O2)[C@H](C)[C@@H](O[C@@H]2O[C@H](C)C[C@H](N(C)C(C)C)[C@H]2O)[C@](C)(O)C[C@@H](C)[C@H](OCC(=O)NOC)[C@H](C)[C@@H](O)[C@]1(C)O [Compound A-69] |
| 7.51 |  | CC[C@H]1OC(=O)[C@H](C)[C@@H](O[C@H]2C[C@@](C)(OC)[C@@H](O)[C@H](C)O2)[C@H](C)[C@@H](O[C@@H]2O[C@H](C)C[C@H](N(C)C(C)C)[C@H]2O)[C@](C)(O)C[C@@H](C)[C@H](OCCNC=O)[C@H](C)[C@@H](O)[C@]1(C)O [Compound A-78] |
| 6.46 | 128 (≈ 150 µM) | CC[C@H]1OC(=O)[C@H](C)[C@@H](O[C@H]2C[C@@](C)(OC)[C@@H](O)[C@H](C)O2)[C@H](C)[C@@H](O[C@@H]2O[C@H](C)C[C@H](N(C)C(C)C)[C@H]2O)[C@](C)(O)C[C@@H](C)[C@H](NS(=O)(=O)CC)[C@H](C)[C@@H](O)[C@]1(C)O [Compound A-40] |
| 6.82 | 128 (≈ 144 µM) | CC[C@H]1OC(=O)[C@H](C)[C@@H](O[C@H]2C[C@@](C)(OC)[C@@H](O)[C@H](C)O2)[C@H](C)[C@@H](O[C@@H]2O[C@H](C)C[C@H](N(C)C(C)C)[C@H]2O)[C@](C)(O)C[C@@H](C)[C@H](OCCCCCC(=O)NC)[C@H](C)[C@@H](O)[C@]1(C)O [Compound A-76] |
| 7.22 | 128 (≈ 142 µM) | CC[C@H]1OC(=O)[C@H](C)[C@@H](O[C@H]2C[C@@](C)(OC)[C@@H](O)[C@H](C)O2)[C@H](C)[C@@H](O[C@@H]2O[C@H](C)C[C@H](N(C)C(C)C)[C@H]2O)[C@](C)(O)C[C@@H](C)[C@H](OCC(=O)Nc2cnccn2)[C@H](C)[C@@H](O)[C@]1(C)O [Compound A-70] |
| 6.57 | > 128 | CC[C@H]1OC(=O)[C@H](C)[C@@H](O[C@H]2C[C@@](C)(OC)[C@@H](O)[C@H](C)O2)[C@H](C)[C@@H](O[C@@H]2O[C@H](C)C[C@H](N(C)C(C)C)[C@H]2O)[C@](C)(O)C[C@@H](C)[C@H](OCC(=O)N(C)C)[C@H](C)[C@@H](O)[C@H]1C [Compound A-72] |
| 7.08 | 128 (≈ 148 µM) | CC[C@H]1OC(=O)[C@H](C)[C@@H](O[C@H]2C[C@@](C)(OC)[C@@H](O)[C@H](C)O2)[C@H](C)[C@@H](O[C@@H]2O[C@H](C)C[C@H](N(C)C(C)C)[C@H]2O)[C@](C)(O)C[C@@H](C)[C@H](OCCCC(=O)NC)[C@H](C)[C@@H](O)[C@]1(C)O [Compound A-73] |
| 6.40 |  | CC[C@H]1OC(=O)[C@H](C)[C@@H](O[C@H]2C[C@@](C)(OC)[C@@H](O)[C@H](C)O2)[C@H](C)[C@@H](O[C@@H]2O[C@H](C)C[C@H](N(C)C(C)C)[C@H]2O)[C@](C)(OC)C[C@@H](C)[C@H](OCC(=O)NC)[C@H](C)[C@@H](O)[C@]1(C)O [Compound A-66] |
| 6.66 |  | CC[C@H]1OC(=O)[C@H](C)[C@@H](O[C@H]2C[C@@](C)(OC)[C@@H](O)[C@H](C)O2)[C@H](C)[C@@H](O[C@@H]2O[C@H](C)C[C@H](N(C)C3CCC3)[C@H]2O)[C@](C)(O)C[C@@H](C)[C@H](OC)[C@H](C)[C@@H](O)[C@]1(C)O [Compound A-47] |
| 6.40 |  | CC[C@H]1OC(=O)[C@H](C)[C@@H](O[C@H]2C[C@@](C)(OC)[C@@H](O)[C@H](C)O2)[C@H](C)[C@@H](O[C@@H]2O[C@H](C)C[C@H](N(C)C(C)C)[C@H]2O)[C@](C)(O)C[C@@H](C)[C@H](OC(=O)NC)[C@H](C)[C@@H](O)[C@]1(C)O [Compound A-79] |
